From US7232837B2, “Stereoisomers with high affinity for adrenergic receptors” (McNeil-PPC, Inc., priority 1999, dated 2007)
Counter-ions that a name gives are not always drawn. Like-named read-outs stand apart in the source and are kept apart here.

Legend:
Swiss-Webster mice [1] = assay: Locomotor stimulant and depressant effects in mice; conditions: i.p.; for Depression Efficacy: ratio of the maximal depressant effect to the maximum possible effect (zero locomotor activity) / Stimulation Efficacy: ratio of the maximal stimulant effect of the test compound to the maximal effect of (+)-amphetamine: locomotor activity
Method: Male Swiss-Webster mice (HSD ND4, Harlan Sprague Dawley, Houston, Tex.) aged 2–3 months were used in these studies. Each dose group consisted of 8 mice. The mice were housed 2 to 4 per cage in 30.4×22.9×15.2 cm clear polycarbonate cages with food and water available ad libitum for at least one week prior to locomotor activity testing. The colony was maintained at 23±1° C., on a normal light-dark cycle beginning at 0700 hr. All testing took place during the light portion of the light-dark cycle.
Horizontal (forward movement) locomotor activity was measured using a standardized, optical activity monitoring system [Model KXYZCM (16), Omnitech Electronics, Columbus, Ohio]. Activity was monitored in forty 40.5×40.5×30.5 cm clear acrylic chambers that where housed in sets of two within larger sound-attenuating chambers. A panel of 16 infrared beams and corresponding photodetectors were spaced 2 cm apart along the sides and 2.4 cm above the floor of each activity chamber. A 7.5-W incandescent light above each chamber provided dim illumination via a rheostat set to 20% of full scale. Fans provided an 80-dB ambient noise level within the chamber.
Triprolidine HCl was obtained from Research Biochemicals International, (Natick, Mass.).
Locomotor stimulant effects. […] (+)-Amphetamine was used as a positive control. The total horizontal distance traversed (cm) was recorded at 10 minute intervals for a 2-hour session. Separate groups of 8 mice were assigned to each dose or saline group, and dose-effect testing continued for each compound until maximal stimulant or depressant effects could be estimated. A separate control group was tested along with each compound.
Using TableCurve 2D v2.03 (Jandel Scientific), the mean average total distance traversed (cm/10 min) for that period was fit to a 3-parameter logistic peak function of log10 dose (with the constant set to the mean of the saline group), and the maximum effect estimated from the resulting curve. The […] (dose producing ½ maximal stimulant activity) was estimated from a linear regression against log10 dose of the ascending portion of the dose-effect curve. The stimulant efficacy was the peak effect of the compound (cm/10 min) as estimated from the logistic peak function, minus the mean control distance traveled (cm/10 min), and was expressed for each stimulant compound as a ratio to the stimulant efficacy determined for (+)-amphetamine.
The mean average total distance traversed (cm/10 min) for that period were fit to a linear function of log10 dose of the descending portion of the dose-effect curve. […] Efficacy was the ratio of maximal depressant effect to maximum possible depression for each compound (mean average total distance of the control group minus the lowest mean total distance, expressed as a ratio to the control group total distance).
(§1) Statistical analysis. Time course data for each compound were considered in 2-way analyses of variance with dose as a between-group and time as a within-group factor. The dose-effect data were considered in 1-way analyses of variance, and planned individual comparisons were conduced between each dose and the saline control group. Interaction studies were considered in 2-way analyses of variance, with Pretreatment and Test dose as the factors.

Swiss-Webster mice [2] = assay: H1 receptor antagonist (triprolidine) interaction study, locomotor activity in mice; conditions: for effect of triprolidine pretreatment on stimulant or depressant effects: mice pretreated with triprolidine 20 min before the test compound
Method: H1 receptor antagonist interaction studies. […] The mice were immediately placed in the activity testing chamber for a 2-h session. Doses of the test compound were selected from the ascending or descending time of the dose-effect curve determined from the compound-alone studies. Eight mice were tested for each triprolidine/test compound combination.
as §1

α2 adrenergic receptors = assay: Alpha-2 binding, 125iodoclonidine, canine brain (frontal cortex) membranes; parameters: species or system canine (mongrel dogs); conditions: for Kd: canine cerebral cortex membranes
Method: BRAIN ALPHA-2 RECEPTORS: Membranes of mongrel dogs were harvested from the canine frontal cortex and prepared as described for lung except that the final membrane protein concentration was adjusted to 0.5 mg/ml.
(§2) ALPHA-2 BINDING ^125IODOCLONIDINE. […] Nonspecific binding was determined in separate incubations in the presence of 10 μM phentolamine. The final concentration of p-iodoclonidine was 44–45 pM in competition studies and between 50 pM and 10 nM in saturation experiments. Bound and free p-^125iodoclonidine were separated and the bound quantified as described above for the ICYP assays. […] BETA-2 BINDING, ^125IODOCYANOPINDOLOL (^125ICYP). […] Nonspecific binding was determined in separate incubations in the presence of 2 μM d,l-propranolol. Each experimental point was determined in triplicate. […] Incubations were terminated as described above for the α1 assays. Filters were placed into polyethylene tubes and the bound ligand was determined by gamma spectrometry (Sano et al., 1993).
(§3) All data were analyzed with the aid of microcomputer nonlinear curve fitting programs (PRISM 2.0, Graphpad Software, San Diego Calif.).
(§4) The receptors resident in each of the three membrane preparations were evaluated by standard saturation analysis following the addition of increasing concentrations of the appropriate radioligand. […] The radio ligand added for subsequent α2-displacement assays was adjusted to evaluate only the high affinity receptor. Contributions from p-iodoclonidine binding to imidazoline receptors in the α2-displacement assay were evaluated with epinephrine.
(§5) The variable, I, is the concentration of tracer added and the variable, Kd, is the equilibrium dissociation constant empirically determined for this receptor population.

β2 adrenergic receptors = molecular target: T1, β2 adrenergic receptors (Canis lupus familiaris, UniProt P54833); assay: Beta-2 binding, 125iodocyanopindolol (ICYP), canine lung membranes; parameters: species or system canine (mongrel dogs)
T1 construct: Canine lung membranes (10 μg protein/100 ul) were incubated with ^125ICYP; from tissue; host or cells: mongrel dog lung membranes
T1 sequence (P54833 whole entry): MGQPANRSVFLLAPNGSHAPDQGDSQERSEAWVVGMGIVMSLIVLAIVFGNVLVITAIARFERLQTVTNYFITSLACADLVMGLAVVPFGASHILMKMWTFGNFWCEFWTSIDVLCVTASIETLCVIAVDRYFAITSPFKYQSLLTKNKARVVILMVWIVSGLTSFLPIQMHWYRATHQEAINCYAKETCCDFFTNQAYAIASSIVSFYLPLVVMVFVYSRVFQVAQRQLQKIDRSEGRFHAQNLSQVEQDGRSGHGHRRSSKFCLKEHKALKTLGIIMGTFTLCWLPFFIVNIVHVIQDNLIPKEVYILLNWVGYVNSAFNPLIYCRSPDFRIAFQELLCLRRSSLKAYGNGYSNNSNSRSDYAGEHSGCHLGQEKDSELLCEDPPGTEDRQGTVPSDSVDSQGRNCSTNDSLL
Method: PULMONARY ALPHA-1 AND BETA-2 RECEPTORS: The lungs of mongrel dogs were separated from cartilaginous airways and major blood vessels, weighed, chopped and placed into 10 volumes of ice-cold buffered sucrose (50 mM Tris-HCl pH 7.4, 1 mM EGTA, 0.32M Sucrose). The tissue was then homogenized in a Polytron tissue homogenizer. The homogenate was filtered through two layers of cheesecloth, and the filtrate was dounced three times using a Con-Turque Potter homogenizer. […] The supernatant was recentrifuged at 30,000×g for 30 min at 4° C. and the resulting pellet was washed and resuspended in 10 volumes of Tris buffer (50 mM Tris HCl, pH 7.4, 1 mM EGTA) and incubated at 37° C. for 30 min in a shaking water bath. The suspension was centrifuged at 4° C. at 30,000×g for 30 min and the resulting pellet washed in 10 volumes of Tris buffer. […] Protein concentration was then determined by the Lowry method and the final suspension was adjusted to 10 mg of protein/ml, aliquoted and stored at […].
Particulates were also prepared for β2 receptors using the identical procedure except the final protein concentration was adjusted to 0.1 mg/ml.
as §2, §3, §4, §5

[3] = — denotes absence of significant effect

C[C@H](N)[C@H](O)c1cccc(O)c1 (relative stereo) [R-(R*,S*) metaraminol]
Depression Time: 30-min period following injection in which the maximal depression occurred (Swiss-Webster mice [1]): 30 to 60 min
Stimulation Time: 30-min period following injection in which the maximal stimulant effect occurred (Swiss-Webster mice [1]): 90 to 120 min
locomotor depressant effects, time course (result in words) (Swiss-Webster mice [1]): dose-dependent locomotor depression within 10 to 20 minutes following injection
Depression Efficacy: ratio of the maximal depressant effect to the maximum possible effect (zero locomotor activity) (Swiss-Webster mice [1]): 0.87
Stimulation Efficacy: ratio of the maximal stimulant effect of the test compound to the maximal effect of (+)-amphetamine (Swiss-Webster mice [1]): 0
Depression Potency: dose resulting in ½ the maximal depressant effect (ID50) (Swiss-Webster mice [1]; [3]): 4.3 mg/kg
effect of triprolidine pretreatment on stimulant or depressant effects (Swiss-Webster mice [2]): failed to show significant modification of stimulant or depressant effects

CC(N)Cc1ccccc1 (single isomer, unassigned; (+)) [(+)-amphetamine, (+)-Amphetamine]
locomotor stimulant effects, time course (result in words) (Swiss-Webster mice [1]): dose- and time-dependent increase in the distance traversed within 10 minutes following injection

CNC[C@H](O)c1ccc(O)c(O)c1 [Epinephrine]
displacement of bound p-iodoclonidine (α2 adrenergic receptors; α2-displacement assay, check for imidazoline receptors): easily displaced all bound p-iodoclonidine

CC(C)(C)NCC(O)COc1cccc2[nH]c(C#N)c(I)c12 (centres unmarked) [ICYP, iodocyanopindolol]
Kd (β2 adrenergic receptors; Saturation Analysis, Run 1): 9.6 pM
Kd (β2 adrenergic receptors; Saturation Analysis, Run 2): 9.3 pM
Kd (β2 adrenergic receptors; Saturation Analysis, Summary): 9.5 pM
Kd (β2 adrenergic receptors; Scatchard Analysis, Run 1): 9.9 pM
Kd (β2 adrenergic receptors; Scatchard Analysis, Run 2): 7.8 pM
Kd (β2 adrenergic receptors; Scatchard Analysis, Summary): 8.9 pM

CNC(C)(C)Cc1ccccc1 [mephentermine]
Depression Time: 30-min period following injection in which the maximal depression occurred (Swiss-Webster mice [1]): 0 to 30 min
Stimulation Time: 30-min period following injection in which the maximal stimulant effect occurred (Swiss-Webster mice [1]): 20 to 50 min
locomotor stimulant effects, time course (result in words) (Swiss-Webster mice [1]): increased locomotion following from 5 to 25 mg/kg, with effects occurring within 20 minutes and lasting for up to 80 minutes
time of peak stimulant effects following injection (Swiss-Webster mice [1]): 20 to 50 min
Depression Efficacy: ratio of the maximal depressant effect to the maximum possible effect (zero locomotor activity) (Swiss-Webster mice [1]): 0
Stimulation Efficacy: ratio of the maximal stimulant effect of the test compound to the maximal effect of (+)-amphetamine (Swiss-Webster mice [1]): 1.25
Stimulation Potency: dose resulting in ½ the maximal stimulant effect (ID50) (Swiss-Webster mice [1]; [3]): 5.6 mg/kg
effect of triprolidine pretreatment on stimulant or depressant effects (Swiss-Webster mice [2]): failed to show significant modification of stimulant or depressant effects

Clc1cc(I)cc(Cl)c1NC1=NCCN1 [p-iodoclonidine]
Kd (α2 adrenergic receptors; Saturation Analysis, read-out: Kd1 (high affinity)): 150 pM
Kd (α2 adrenergic receptors; Saturation Analysis, read-out: Kd2 (low affinity)): 3010 pM
Kd (α2 adrenergic receptors; Scatchard Analysis, read-out: Kd1 (high affinity)): 150 pM
Kd (α2 adrenergic receptors; Scatchard Analysis, read-out: Kd2 (low affinity)): 870 pM

Cc1ccc(/C(=C\CN2CCCC2)c2ccccn2)cc1 [triprolidine, Triprolidine HCl]
effect on horizontal distance, triprolidine alone (Swiss-Webster mice [2]; 0.25 to 25 mg/kg, 2-hour test period): failed to affect horizontal distance
effect on locomotion, triprolidine alone (Swiss-Webster mice [2]; 50 and 100 mg/kg): Dose-dependent depression of locomotion
